The values below come from patent US20050228031A1, “Tyrosine kinase inhibitors” (priority 2004, published 2005).

One may read the melting point as the temperature of the solid-liquid transition. Turning to `Cc1cc(C)cc(Nc2ncc(-c3ccccc3)s2)c1` [Compound 2-3, N-(3,5-dimethylphenyl)-5-phenyl-1,3-thiazol-2-amine], the melting point came to 144 °C.

In turn, `c1ccc(Nc2ncc(-c3ccccc3)o2)cc1` [Compound 5-4, N,5-diphenyl-1,3-oxazol-2-amine] came in with a melting point of 169 to 170 °C. Regarding `c1ccc(-c2cnc(Nc3ccc4c(c3)CCC4)o2)cc1` [Compound 5-5, N-(2,3-dihydro-1H-inden-5-yl)-5-phenyl-1,3-oxazol-2-amine], the melting point stood at 152 °C.

With `FC(F)(F)c1cc(Nc2ncc(-c3ccccc3)o2)cc(C(F)(F)F)c1` [Compound 5-6, N-[3,5-bis(trifluoromethyl)-phenyl]-5-phenyl-1,3-oxazol-2-amine], the melting point was 203 °C.
